According to patent publication US20230279018A1, “AP[…] INHIBITION” (priority 2020, published 2023):
Where two headings read alike, the source gives them in different places.

How the values were obtained:
Pf Dd2 = Pf Dd2 growth inhibition assay; assay type: cell-based, Plasmodium falciparum
Description: (§1) EC50 assays were run as described in Int'l Pub Nos. WO 2015070204, WO 2018175385, and Kato, N, et al. Nature 538 (2016): 344-349, which are hereby incorporated by reference in its entirety. The inhibition of the aminoacylation activity of Pf (Plasmodium falciparum), Pv (Plasmodium vivax), Hs (Human) and Pf-Mut (L550V) cFRS enzymes by Compound 1 are illustrated in FIG. 1.

Pf-Mut (L550V) cFRS = molecular target: T1, Pf-Mut (L550V) cFRS (Plasmodium falciparum, UniProt Q8I246, L550V); assay: malachite green-based aminoacylation assay, Pf-Mut (L550V) cFRS; assay type: biochemical; settings: aminoacylation activity; read-out: cFRS IC50, Pf mutant (L550V)
T1 sequence (Q8I246 1-575 L550V): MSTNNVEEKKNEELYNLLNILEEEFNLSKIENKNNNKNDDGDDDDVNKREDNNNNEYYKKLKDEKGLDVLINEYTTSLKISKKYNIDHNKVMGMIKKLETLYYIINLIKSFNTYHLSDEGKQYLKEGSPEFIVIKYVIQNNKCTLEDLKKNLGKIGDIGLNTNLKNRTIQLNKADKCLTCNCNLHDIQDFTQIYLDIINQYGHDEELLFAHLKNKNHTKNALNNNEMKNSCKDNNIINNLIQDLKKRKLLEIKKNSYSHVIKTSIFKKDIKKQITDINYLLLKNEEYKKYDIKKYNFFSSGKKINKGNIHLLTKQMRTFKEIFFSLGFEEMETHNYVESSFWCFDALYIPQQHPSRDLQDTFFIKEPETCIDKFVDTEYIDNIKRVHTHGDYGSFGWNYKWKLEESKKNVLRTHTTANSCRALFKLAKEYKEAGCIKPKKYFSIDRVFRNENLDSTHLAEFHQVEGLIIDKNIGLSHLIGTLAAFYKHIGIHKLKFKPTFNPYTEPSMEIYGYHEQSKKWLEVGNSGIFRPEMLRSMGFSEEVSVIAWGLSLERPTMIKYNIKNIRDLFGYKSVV
T1 sequence (Q8IIW2 1-623 partner): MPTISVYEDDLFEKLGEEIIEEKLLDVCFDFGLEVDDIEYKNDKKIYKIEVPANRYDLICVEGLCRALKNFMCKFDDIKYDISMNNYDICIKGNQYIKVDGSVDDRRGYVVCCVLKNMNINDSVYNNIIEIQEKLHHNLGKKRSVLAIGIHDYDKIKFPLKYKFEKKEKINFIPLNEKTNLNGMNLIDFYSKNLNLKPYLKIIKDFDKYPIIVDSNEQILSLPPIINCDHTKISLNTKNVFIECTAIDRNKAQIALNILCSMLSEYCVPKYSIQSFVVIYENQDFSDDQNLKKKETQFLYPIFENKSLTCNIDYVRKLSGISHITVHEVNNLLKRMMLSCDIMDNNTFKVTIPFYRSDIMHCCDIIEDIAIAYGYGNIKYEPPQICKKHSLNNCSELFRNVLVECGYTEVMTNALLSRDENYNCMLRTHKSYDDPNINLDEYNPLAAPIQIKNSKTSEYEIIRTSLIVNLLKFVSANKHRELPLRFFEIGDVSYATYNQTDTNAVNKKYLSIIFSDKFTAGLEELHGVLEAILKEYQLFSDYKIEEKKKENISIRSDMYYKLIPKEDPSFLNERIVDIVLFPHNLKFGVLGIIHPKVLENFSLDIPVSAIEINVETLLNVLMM
Description: as §1
The enzymatic activity of purified heterodimeric PfcFRS using malachite green-based aminoacylation assays with substrates L-Phe and ATP was also measured as described in Cestari, I. et al., J Biomol. Screen. 18 (2013): 490-497 and Kato, N, et al. Nature 538 (2016): 344-349, which are hereby incorporated by reference in its entirety. […] Enzymatic reactions (50 μl total volume) were performed in clear, flat-bottomed, 96-well plates (Costar 96-well standard microplates). The reaction mixture was incubated for 2 h at 37° C. The reaction was stopped by adding 12.5 μl of malachite green solution to the reaction mixture and levels of inorganic phosphate (Pi) were detected after incubation of 5 min at room temperature. Absorbance was the measured at 620 nm using a Spectramax M2 (Molecular Devices). Reactions without FRS enzyme were performed as background controls, values of which were subtracted from the reactions with enzyme. […]

PfcFRS = molecular target: T2, PfcFRS (Plasmodium falciparum, UniProt Q8I246); assay: malachite green-based aminoacylation assay, PfcFRS; assay type: biochemical
T2 sequence (Q8I246 1-575): T1 sequence (Q8I246 1-575 L550V)
T2 sequence (Q8IIW2 1-623 partner): T1 sequence (Q8IIW2 1-623 partner)
Description: as §1
The enzymatic activity of purified heterodimeric PfcFRS using malachite green-based aminoacylation assays with substrates L-Phe and ATP was also measured as described in Cestari, I. et al., J Biomol. Screen. 18 (2013): 490-497 and Kato, N, et al. Nature 538 (2016): 344-349, which are hereby incorporated by reference in its entirety. […] Enzymatic reactions (50 μl total volume) were performed in clear, flat-bottomed, 96-well plates (Costar 96-well standard microplates). The reaction mixture was incubated for 2 h at 37° C. The reaction was stopped by adding 12.5 μl of malachite green solution to the reaction mixture and levels of inorganic phosphate (Pi) were detected after incubation of 5 min at room temperature. Absorbance was the measured at 620 nm using a Spectramax M2 (Molecular Devices). Reactions without FRS enzyme were performed as background controls, values of which were subtracted from the reactions with enzyme. Compound 1 was added to the aminoacylation assay reaction buffer in varying concentrations ranging from 0.1 nM to 10,000 nM.
Data sets were then globally fitted to the appropriate model (with equations (1) and (2) used for competitive and mixed inhibition respectively).
where v is the reaction rate, Km is the Michaelis-Menten constant, Vmax is the maximum reaction velocity, Ki is the inhibitor constant, [I] is the concentration of inhibitor (Compound 1) and [S] is the concentration of substrate.
The data is shown for three replicates as the mean±SD in FIGS. 2A and 2B. […] Specifically, enzyme activity was evaluated at a fixed saturating concentration of one substrate (L-Phe or ATP) and varying concentrations the other at different inhibitor concentrations. The experimental data were fit to the Michaelis-Menten equation that produced Lineweaver-Burk plots as described above. […] The mode of inhibition was then analyzed using ATP as the variable-concentration substrate (FIG. 2B). The data were then fit to the modified high-substrate inhibition Michaelis-Menten equation that led to the corresponding double-reciprocal plot and its inhibition profile.

## COC[C@@H]1[C@H](c2ccc(C#Cc3ccccc3)cc2)[C@@H]2CN(C(=O)Nc3ccc(OC4CC4)cc3)C[C@@H](O)[C@@H](O)CN12 [Compound 1, (3S,4R,8R,9R,10S)—N-(4-cyclopropoxyphenyl)-3,4-dihydroxy-10-(methoxymethyl)-9-(4-(phenylethynyl)phenyl)-1,6-diazabicyclo[6.2.0]decane-6-carboxamide]
Pf Dd2; Plasmodium falciparum, DD2, read-out: PfDd2 growth inhibition EC50
  EC50: < 1 nM
Pf Dd2; versus (3S,4R,8R,9S,10S)-10-((dimethylamino)methyl) analogue
  efficacy by EC50 Pf Dd2 growth inhibition relative to comparator: three fold better efficacy
Pf-Mut (L550V) cFRS
  IC50: 1000 nM
PfcFRS; Lineweaver-Burk analysis
  mode of inhibition with respect to ATP: non-competitive inhibitor
  mode of inhibition with respect to L-Phe: competitive inhibitor
PfcFRS; aminoacylation activity, read-out: cFRS IC50, Pf
  IC50: 12 nM
PfcFRS; global competitive inhibition model, saturating ATP, varying L-Phe, read-out: Ki with respect to L-Phe
  Ki: 6 ± 2 nM
PfcFRS; non-competitive inhibition model, saturating L-Phe, varying ATP, read-out: Ki with respect to ATP
  Ki: 10 ± 5 nM
